Patent US20260347365A1, “COMPOUND FOR REGULATING AND CONTROLLING 15-PGDH ACTIVITY AND PREPARATION METHOD THEREFOR” (SCINNOHUB PHARMACEUTICAL CO.,LTD, priority 2023, published 2026)
Read-outs that look alike come from different tables or passages of the source.

Biological target: T1, 15-PGDH (Homo sapiens, UniProt P15428)
T1 construct: purchased Sino Biological Inc. 11205-H08E
T1 sequence (P15428 1-266): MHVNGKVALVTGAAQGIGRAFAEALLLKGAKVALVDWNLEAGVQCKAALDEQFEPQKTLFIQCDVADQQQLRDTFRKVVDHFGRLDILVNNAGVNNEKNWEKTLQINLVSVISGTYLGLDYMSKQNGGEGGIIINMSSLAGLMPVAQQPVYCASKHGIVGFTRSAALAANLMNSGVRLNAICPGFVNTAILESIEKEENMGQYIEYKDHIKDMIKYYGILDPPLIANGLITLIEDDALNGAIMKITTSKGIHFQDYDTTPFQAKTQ
Assay: Detection of Activity of 15-PGDH Kinase (inhibition of 15-PGDH enzyme)
Type: biochemical
Procedure: • a. A solution of pH 7.5 containing 50 mM Tris-HCl and 0.01% Tween 20 was prepared with ultrapure water as a reaction buffer; • b. a 10 mM mother liquor of the compound to be tested was prepared with DMSO, and then the reaction buffer was used to dilute the mother liquor of the compound to be tested to obtain solution 1 of the compound to be tested at a concentration of 4000 nM, and then the solution 1 of the compound to be tested was serially diluted into solutions 2-10 of the compound to be tested at 9 concentrations with a gradient difference of three-fold. 5 μL of each concentration of solutions 1-10 of the compound to be tested was respectively taken and added into a 384-well plate as test wells; • c. 5 μL of the reaction buffer was added to the 384-well plate as positive control and blank control wells; • d. the reaction buffer was used to prepare a 15-PGDH protein solution at a concentration of 5 ng/μL, 5 μL of the 15-PGDH protein solution was taken and added to the test wells and positive control wells, and 5 μL of the reaction buffer was added to the blank control wells at the same time, then the plate was centrifuged at 2000 rpm for 30 seconds; • e. the reaction buffer was used to prepare 5 mM β-NAD and 2 mM PGF2α, respectively, which were mixed at 1:1 by volume to obtain a substrate mixture, 10 μL of the substrate mixture was taken and added to the test wells, positive control wells and blank control wells to start the reaction; • f. the fluorescence signal value (Ex/Em=340/450) of each well was detected continuously by using a multifunctional microplate reader.
• a) Continuous fluorescence signal values were analyzed by using the “kinetic calculations-slope calculation method” in the PHERAstar Data analysis software to obtain the slope of each test well; • b) the inhibition rate % was calculated by using the following formula:
inhibition rate %=[1−(slope of test well-signal value of positive control well)/(signal value of blank control well-average signal value of positive control well)]×100%. • c) calculation of IC50 and plotting of inhibition rate-dose curves: IC50 values were calculated by fitting compound concentrations and corresponding inhibition rates with a nonlinear regression (dose response-variable slope) via using GraphPad Prism 6.0.
The formula is shown below: Y=Bottom+(Top−Bottom)/(1+10^((Log IC50−X)*HillSlope)), wherein X is a log value of a concentration of the compound, and Y is inhibition rate %.

[1] = class symbols, substrates β-NAD and PGF2α, pH 7.5, fluorescence Ex/Em=340/450, read-out: IC50

SMILES | IC50 [nM] | IC50 [1] [nM]
O=C(c1ccc2c(c1)nc(-c1ccc3ocnc3c1)c1nccn12)N1CCCCC1 [Example 2, (4-(benzo[d]oxazol-5-yl)imidazo[1,2-a]quinoxalin-7-yl)(piperidin-1-yl)methanone] | 2 to 5 | 
Cc1cnc2c(-c3ccc4c(c3)CN(C)C4=O)nc3cc(C(=O)N4CCCCC4)ccc3n12 [Example 3, 2-methyl-5-(1-methyl-7-(piperidine-1-carbonyl)imidazo[1,2-a]quinoxalin-4-yl) isoindolin-1-one] | 2 to 5 | 
CN1Cc2cc(C3=Nc4cc(C(=O)N5CCCCC5)ccc4N4CC5(CC5)N=C34)ccc2C1=O [Example 4, 2-methyl-5-(7′-(piperidine-1-carbonyl)-1′H-spiro[cyclopropane-1,2′-imidazo[1,2-a]quinoxaline]-4′-yl) isoindolin-1-one] | < 2 | 
CN1Cc2cc(-c3nc4cc(C(=O)N5CCCCC5)ccc4n4cnnc34)ccc2C1=O [Example 5, 2-methyl-5-(7-(piperidine-1-carbonyl)-[1,2,4]triazolo[4,3-a]quinoxalin-4-yl) isoindolin-1-one] | 5 to 10 | 
CN1Cc2cc(-c3nc4cc(C(=O)N5CCCCC5)ccc4n4ccnc34)ccc2C1=O [Example 6] |  | < 2
Nc1ncc(-c2nc3cc(C(=O)N4CCCCC4)ccc3n3ccnc23)cn1 [Example 7] |  | 2 to 5
O=C(c1ccc2c(c1)nc(-c1cncnc1)c1nccn12)N1CCCCC1 [Example 8] |  | 5 to 10
O=C(c1ccc2c(c1)nc(-c1ccc3ncsc3c1)c1nccn12)N1CCCCC1 [Example 10] |  | 5 to 10
O=C(c1ccc2c(c1)nc(-c1ccccc1)c1nccn12)N1CCC(F)(F)CC1 [Example 16] |  | 100 to 1000
O=C(c1ccc2c(c1)nc(-c1ccccc1)c1nccn12)N1CCOCC1 [Example 17] |  | 100 to 1000
Cn1cc(-c2nc3cc(C(=O)N4CCCCC4)ccc3n3ccnc23)ccc1=O [Example 18] |  | 10 to 20
O=C(c1ccc2c(c1)nc(-c1ccc3nccnc3c1)c1nccn12)N1CCCCC1 [Example 19] |  | 5 to 10
Cn1ccc2cc(-c3nc4cc(C(=O)N5CCCCC5)ccc4n4ccnc34)ccc2c1=O [Example 20] |  | < 2
Cn1cc2cc(-c3nc4cc(C(=O)N5CCCCC5)ccc4n4ccnc34)ccc2n1 [Example 21] |  | < 2
Cn1ccc2cc(-c3nc4cc(C(=O)N5CCCCC5)ccc4n4ccnc34)cnc21 [Example 23] |  | 2 to 5
Cn1ncc2cc(-c3nc4cc(C(=O)N5CCCCC5)ccc4n4ccnc34)ccc21 [Example 24] |  | 2 to 5
O=C(c1ccc2c(c1)nc(-c1ccc3ncnn3c1)c1nccn12)N1CCCCC1 [Example 27] |  | 5 to 10
O=C(c1ccc2c(c1)nc(-c1ccc3[nH]c(=O)[nH]c3c1)c1nccn12)N1CCCCC1 [Example 29] |  | < 2
CCOC(=O)c1cn2cc(-c3nc4cc(C(=O)N5CCCCC5)ccc4n4ccnc34)ccc2n1 [Example 30] |  | 5 to 10

SMILES | IC50 [nM] | IC50 [1] [nM]
O=C1OCc2cc(-c3nc4cc(C(=O)N5CCCCC5)ccc4n4ccnc34)ccc21 [Example 31] |  | 5 to 10
O=C(O)c1ccc(-c2nc3cc(C(=O)N4CCCCC4)ccc3n3ccnc23)cc1 [Example 33] |  | < 2
Cc1cn2c(n1)c(-c1ccc3c(c1)CN(C)C3=O)nc1cc(C(=O)N3CCCCC3)ccc12 [Example 34] |  | < 2
CN1Cc2cc(C3=Nc4cc(C(=O)N5CCCCC5)ccc4N4CCN=C34)ccc2C1=O [Example 35] |  | < 2
CC1CN2C(=N1)C(c1ccc3c(c1)CN(C)C3=O)=Nc1cc(C(=O)N3CCCCC3)ccc12 (centres unmarked) [Example 36] |  | < 2
CC1CN=C2C(c3ccc4c(c3)CN(C)C4=O)=Nc3cc(C(=O)N4CCCCC4)ccc3N21 (centres unmarked) [Example 37] |  | < 2
CN1Cc2cc(-c3nc4cc(C(=O)N5CCC(F)CC5)ccc4n4ccnc34)ccc2C1=O [Example 38] |  | 2 to 5
CN1Cc2cc(-c3nc4cc(C(=O)N5CCCC5)ccc4n4ccnc34)ccc2C1=O [Example 40] |  | 50 to 100
CN1Cc2cc(C3=Nc4cc(C(=O)N5CCCCC5)ccc4N4CC(C)(C)N=C34)ccc2C1=O [Example 41] |  | < 2
CCOC(=O)c1ccc(-c2nc3cc(C(=O)N4CCCCC4)ccc3n3ccnc23)cc1 [Example 42] |  | 5 to 10
CC(C)C1CN2C(=N1)C(c1ccc3c(c1)CN(C)C3=O)=Nc1cc(C(=O)N3CCCCC3)ccc12 (centres unmarked) [Example 43] |  | 5 to 10
CC(C)CC1CN2C(=N1)C(c1ccc3c(c1)CN(C)C3=O)=Nc1cc(C(=O)N3CCCCC3)ccc12 (centres unmarked) [Example 44] |  | 5 to 10
CN1Cc2cc(C3=Nc4cc(C(=O)N5CCCCC5)ccc4N4CC(C(C)(C)C)N=C34)ccc2C1=O (centres unmarked) [Example 45] |  | 5 to 10
CN1Cc2cc(-c3nc4cc(C(=O)N5CCCCC5)ccc4c4nccn34)ccc2C1=O [Example 46, 2-methyl-5-(8-(piperidine-1-carbonyl)imidazo[1,2-c]quinazolin-5-yl) isoindolin-1-one] |  | 2 to 5
O=C(c1ccc2c(c1)nc(-c1ccc3c(c1)CCN3)n1ccnc21)N1CCCCC1 [Example 47] |  | 2 to 5
N#Cc1ccc(-c2nc3cc(C(=O)N4CCCCC4)ccc3c3nccn23)cn1 [Example 50] |  | 5 to 10
CN(C)c1ncc(-c2nc3cc(C(=O)N4CCCCC4)ccc3c3nccn23)cn1 [Example 52] |  | 5 to 10
Cn1cc(-c2nc3cc(C(=O)N4CCCCC4)ccc3c3nccn23)cn1 [Example 53] |  | 2 to 5
O=C(c1ccc2c(c1)nc(-c1ccc3ncsc3c1)n1ccnc21)N1CCCCC1 [Example 54] |  | < 2

SMILES | IC50 [nM] | IC50 [1] [nM]
Nc1ncc(-c2nc3cc(C(=O)N4CCCCC4)ccc3c3nccn23)cn1 [Example 56] |  | < 2
O=C(c1ccc2c(c1)nc(-c1cccnc1)n1ccnc21)N1CCCCC1 [Example 57] |  | 2 to 5
O=C(c1ccc2c(c1)nc(-c1ccc3nccn3c1)n1ccnc21)N1CCCCC1 [Example 59] |  | 5 to 10
O=C(c1ccc2c(c1)nc(-c1ccc3c(c1)OCCO3)n1ccnc21)N1CCCCC1 [Example 60] |  | 5 to 10
Cn1ccc(-c2nc3cc(C(=O)N4CCCCC4)ccc3c3nccn23)cc1=O [Example 61] |  | 5 to 10
Cn1ccc2cc(-c3nc4cc(C(=O)N5CCCCC5)ccc4c4nccn34)cnc21 [Example 62] |  | < 2
O=C(c1ccc2c(c1)nc(-c1ccc3nccnc3c1)n1ccnc21)N1CCCCC1 [Example 67] |  | 2 to 5
Cn1ncc2cc(-c3nc4cc(C(=O)N5CCCCC5)ccc4c4nccn34)ccc21 [Example 69] |  | 2 to 5
CCOC(=O)c1cc2cc(-c3nc4cc(C(=O)N5CCCCC5)ccc4c4nccn34)ccc2[nH]1 [Example 72] |  | 5 to 10
Cn1ccc2cc(-c3nc4cc(C(=O)N5CCCCC5)ccc4c4nccn34)ccc2c1=O [Example 73] |  | < 2
CN1Cc2cc(-c3nc4ccc(C(=O)N5CCCCC5)cc4c4nccn34)ccc2C1=O [Example 75] |  | 100 to 1000
CN1Cc2cc(-c3nc4cc(C(=O)N5CCCCC5)ccc4c4ncnn34)ccc2C1=O [Example 76] |  | < 2
Cc1nc2c3ccc(C(=O)N4CCCCC4)cc3nc(-c3ccc4c(c3)CN(C)C4=O)n2n1 [Example 77] |  | < 2
CC(C)c1nc2c3ccc(C(=O)N4CCCCC4)cc3nc(-c3ccc4c(c3)CN(C)C4=O)n2n1 [Example 78] |  | 2 to 5
CN1Cc2cc(-c3nc4cc(C(=O)N5CCCCC5)ccc4c4nc(C(F)(F)F)nn34)ccc2C1=O [Example 79] |  | 2 to 5
CN1Cc2cc(-c3nc4cc(C(=O)N5CCCCC5)ccc4c4cccn34)ccc2C1=O [Example 80] |  | < 2
CN1Cc2cc(-c3nc4cc(C(=O)N5CCCCC5)ccc4c4ccnn34)ccc2C1=O [Example 81] |  | < 2
CN1Cc2cc(C3=Nc4cc(C(=O)N5CCCCC5)ccc4C4=NCCN34)ccc2C1=O [Example 82] |  | 5 to 10
